Experimental data reported in patent US5670520A, “Method for inhibiting virus replication in mammalian cells using carbostyil derivatives” (Otsuka Pharmaceutical Co., Ltd., priority 1996, dated 1997).

Columns and labels:
EBV [1] = assay: In situ hybridization of EBV DNA in anti-IgG stimulated DMSO-released Akata cells; format: cell-based, Epstein-Barr virus; conditions: 20 hrs after 50 μg/ml anti-IgG; vesnarinone 0-100 μg/ml; acyclovir pretreatment
Procedure: The human Burkitt's lymphoma cell line, Akata, provided by Dr. Kenzo Takada (Takada, Int. J. Cancer, 33:27-32 (1984); and Takada et al, Virus Genes, 5:147-156 (1991)), was cultured at 37° C. in RPMI 1640 medium supplemented with 15% (v/v) heat-inactivated FCS, and 20 μg/ml gentamicin.
The cell progression of Akata cells was arrested by culturing of the cells for 96 hrs in the presence of 1.5% (y/v) DMSO (Sigma, St. Louis, Mo.) (Sawai et al, Exp. Cell Res., 187:4-10 (1990); and Takase et al, Cell Growth Differ., 3:515-521 (1992)).
1 hr after transfer (release from DMSO), a goat F(ab')2 fragment of anti-human IgG antibody (Organon Teknika, Durham, N.C.) was added at a concentration of 50 μg/ml to induce productive EBV replication (Takagi et al, Virology, 185:309-315 (1991)).
3 hrs and 20 hrs after treatment with the anti-IgG, the cells were harvested for flow cytometric detection of the BamHI Z replication activator (ZEBRA), and for in situ detection of EBV DNA, respectively. […]
More specifically, cells coated on a glass slide were fixed in acetone at room temperature for 10 min. […] Positivity for EBV DNA was determined by the presence of red-colored grains and at least 1000 cells were examined under light microscopy. […]

ZEBRA, R, EA-R, EA-D = assay: Western immunoblot of EBV early antigens in Akata cells; format: cell-based, Epstein-Barr virus; conditions: 30 μg/ml vesnarinone
Procedure: 1 hr after release and transfer, the above-described anti-IgG antibody was added at a concentration of 50 μg/ml. 3 hrs and 20 hrs after treatment with the anti-IgG, the cells were harvested for the detection of EBV early antigens ZEBRA (BZLF1 product) by Western immunoblot.
More specifically, cells were washed with PBS, and then lysed at 4° C. in a buffer comprising 25 mM Tris-HCl (pH 7.4), 50 mM NaCl, 0.5% (w/v) sodium deoxycholate, 2.0% (v/v) Nonidet P-40, 0.2% (w/v) SDS, 1.0 mM phenyl-methane sulfonyl fluoride (PMSF), 10 μg/ml aprotinin, 10 μM leupeptin, and 100 μM sodium orthovanadate. After centrifugation, lysates were prepared for electrophoresis as described by Laemmli, Nature, 227:680-685 (1970). An amount of lysate equivalent to 4.0×10^5 cells was used for each immunoblot analysis.
After electrophoretic transfer of proteins to nitrocellulose filters and blocking the filters with 20 mM Tris-HCl (pH 8.0), 125 mM NaCl, 0.1% (v/v) Tween-20, 2.0% (w/v) BSA, and 0.1% (w/v) sodium azide, the filters were incubated with the appropriate primary antibody. For detection of ZEBRA (EB1, BZLF1 gene product), the antibody used was mouse monoclonal anti-EB1 (Z-125); for the detection of R (BRLF1 product), the antibody used was the mouse monoclonal anti-R (R5A9, provided by Dr. Evelyn Manet); for the detection of EA-R (BHRF1 product), monoclonal anti-EA-R (5B11, provided by Dr. Elliott Kieff) (Pearson et al, Virol., 160:151-161 (1987); and Henderson et al, Proc. Natl. Acad. Sci. USA, 90:8479-8483 (1993)), and for the detection of EA-D (BMRF1 product), the antibody used with the mouse monoclonal anti-EA-D (NEA-9240, DuPont, Boston, Mass. (Pearson et al, J. Virol., 47:193-201 (1983); and Kiehl et al, Virol., 184:330-340 (1991))).
Specific reactive bands were detected using anti-mouse secondary antibodies conjugated to alkaline phosphatase (Promega, Madison, Wis.) or horseradish peroxidase (Amersham) or ECL chemiluminescence (Amersham). That is, for detection of ZEBRA and R, alkaline phosphatase was used. For detection of EA-R and EA-D, horseradish peroxidase and the ECL chemiluminescence method was used (Amersham). Development was by the conventional methods, employing the colorogenic substrates bromochloroindolyl phosphate and nitroblue tetrazolium for alkaline phosphatase. The expression of ZEBRA reached a plateau level 3 hrs after stimulation and productive replication of EBV ceased 12 hrs after stimulation in this system.

EBV [2] = assay: Productive replication of EBV in growing Akata cells (in situ hybridization); format: cell-based, Epstein-Barr virus; conditions: for positivity for EBV DNA: 20 μg/ml vesnarinone
Procedure: 1 hr later, anti-IgG was added to the cultures at a final concentration of 50 μg/ml, and the cells were harvested for in situ hybridization of EBV DNA 24 hrs later as described above.

[3] = some patients; cited from earlier work
U937 cells = assay: Intracellular phosphorylated AZT in U937 cells (DEAE filter); conditions: 0-250 μM vesnarinone or 0-100 nM dipyridamole; 2 hr

For `COc1ccc(C(=O)N2CCN(c3ccc4c(c3)CCC(=O)N4)CC2)cc1OC` [vesnarinone, 3,4-dihydro-6-[4-(3,4-dimethoxybenzoyl)-1-piperazinyl]-2(1H)-quinoline], the “population of EBV producing cells (positivity for EBV DNA)” value (EBV [1]) was “gradually decreased in the presence of vesnarinone in a dose-dependent manner”, the “expression of ZEBRA (BZLF1)” value (ZEBRA, R, EA-R, EA-D; 3 hrs after anti-IgG) was “suppressed 3 hrs after stimulation with anti-IgG to a limited extent” and the “expression of EA-R (BHRF1)” value (ZEBRA, R, EA-R, EA-D; 3 hrs and 20 hrs) was “expressed to the same degree 3 hrs and 20 hrs after stimulation”. The “expression of R (BRLF1)” value (ZEBRA, R, EA-R, EA-D; 3 hrs and 20 hrs) was “expressed virtually at the same level in the presence or absence of vesnarinone”, the “expression of EA-D (BMRF1)” value (ZEBRA, R, EA-R, EA-D; 20 hrs after stimulation) was “dramatically suppressed in the presence of vesnarinone” and the EBV production (EBV [2]; 20 μg/ml vesnarinone only concurrently with anti-IgG treatment) was “displayed a more profound reduction of EBV production”. For the same compound, the “positivity for EBV DNA” value (EBV [2]; pre-treatment alone (7 days)) was “the degree of positivity for EBV DNA was higher”, the “positivity for EBV DNA” value (EBV [2]; pre-treatment+post-treatment or solely post-treatment) was “reduced the level of positivity for EBV DNA compared to untreated cells” and the “major side effect in patients” value [3] was “agranulocytosis, a major side effect of vesnarinone observed in some patients”. For the same compound, the “intracellular concentration of phosphorylated AZT” value (U937 cells) was “increased the concentration of phosphorylated AZT in U937 cells in a dose-dependent manner”.
